Experimental data from patent US20260242738A1, “ALK5 INHIBITORS FOR EFFICIENT DERIVATION OF MESENCHYMAL STEM CELLS FROM EMBRYONIC STEM CELLS” (SCRIPPS HEALTH, priority 2022, published 2026).

Columns and labels:
H9 ES-MSC = assay: Chondrogenic gene expression of pellets relative to monolayer controls; format: cell-based, human
Description: (§1) Monolayer-expanded ES-MSC (passage 2-5) were detached using Accutase® and 0.5×10^6 cells in 0.5 ml of chondrogenic medium were centrifuged at 900 rpm (~770 G) for 5 minutes to form high-density pellets. At least 5-6 pellets, for each ES-MSC condition, were cultured in serum-free chondrogenic medium consisting of Dulbecco's Modified Eagle Medium (Mediatech Inc., Manassas, VA), 1×ITS supplement (Sigma-Aldrich, St. Louis, MO), 100 nM Dexamethasone (Sigma), 1.25 mg/ml human serum albumin (Bayer, Leverkusen, Germany), 100 μM ascorbic acid 2-phosphate (Sigma), 1% penicillin/streptomycin/gentamycin (PSG, Gibco, Carlsbad, CA), and 10 ng/ml TGFβ3 (PeproTech, Rocky Hill, NJ). Pellets for ex vivo implantation were cultured for 3 days before implantation; pellets for histologic or gene expression analysis were maintained in culture for 3 weeks with media changes every 3 to 4 days.
(§2) Total RNA was extracted from using the RNeasy kit as recommended by the manufacturer (QIAGEN, Valencia, CA). […] Expression of the following genes was quantified POU5F1/OCT4 and SOX2 (for pluripotency); FOXA1 and SOX17 (for endoderm); NES and PAX6 (for ectoderm); NKX2-5, MSX1, NCAM1, and SOX9 (for mesoderm); ITGB1/CD29 (for MSC phenotype); and COL1A1, COL2A1, COL10A1, COMP, ACAN, and SOX9 and RUNX2 (for chondrogenesis). […]

HADC 100 ES-MSC = assay: as above; format: cell-based, human; conditions: HADC 100 ES-MSC pellets
Description: as §1, §2

Q: Which “chondrogenic genes (COL2A1, ACAN, COMP and SOX9) relative to monolayer controls” value (H9 ES-MSC) does the source give for NC(=O)c1ccc(-c2nc(-c3ccc4c(c3)OCO4)c(-c3ccccn3)[nH]2)cc1 [SB431542] here?
A: higher levels

Q: What about the “chondrogenic genes (COL2A1, ACAN, COMP and SOX9) relative to monolayer controls” value (HADC 100 ES-MSC) of the same molecule?
A: higher levels
